Measurements from patent publication US12251373B2, “Compounds and methods of treating retinal degeneration” (CASE WESTERN RESERVE UNIVERSITY, priority 2017, dated 2025).

Tests used:
[1] = tested on: Abca4−/−Rdh8−/− mice; assay: Bright light-induced retinal degeneration; format: in vivo, mouse; details: 50 or 200 mg kg−1 bw i.p. 30 min before 10,000 lux for 30 min; SD-OCT and HE seven days later
Experimental: Abca4^−/−Rdh8^−/−42 mice with a 129Sv/Ev or C57BL/6 mixed background were used for light-induced retinal degeneration assays. […] Male and female C57BL/6 mice (Jackson Laboratory, Bar Harbor, ME) at six weeks of age were used to test the effects of YC-001 treatment on the retinoid cycle and bw as well as to determine parenterally administrated YC-001 enter the eyes. YC-001 was dissolved in DMSO at 80-160 mg mL^−1, and the solution was provided to mice by i.p. injection. All mice were housed and maintained in a 12 h light (≤10 lux)/12 h dark cycle in the Animal Resource Center at the School of Medicine, CWRU. […]
Retinal degeneration was initiated by exposing Abca4^−/−Rdh8^−/− mice for 30 min to white light with an intensity of 10,000 lux (150-W spiral lamp, Hampton Bay, Home Depot, Atlanta, GA USA). […] Retinal structures were analyzed by SD-OCT seven days after bright light exposure. […]
To assess the effect of YC-001 treatment on Abca4^−/−Rdh8^−/− mice following bright light-induced retinal degeneration, we performed ultrahigh-resolution SD-OCT (Bioptigen, Morrisville, NC) for in vivo imaging of mouse retinas. […] To measure changes to photoreceptors in the retinas challenged with bright light and assess the effect of YC-001 on retinal protection, the thickness of the ONL was measured along the scanned SD-OCT image at 8 points from the nasal to temporal end of the retina. […]

[2] = Quantification of YC-001 in mouse eye by HPLC; format: in vivo
Experimental: To measure the amount of YC-001 in the eye following systemic delivery, YC-001 was administered to C57BL6 mice by i.p. injection at a dose of 200 mg kg^−1 bw. Mice then were euthanized at 30 min, 3 h and 24 h after these injections, and their eyes were removed for analysis. Eyes from two mice under the same treatment were homogenized on ice in 1 mL of PBS:methanol (1:1 ratio). Four-mL of hexanes were then added to the homogenized sample, and the mixture was vortexed for 15 s. The mixture was centrifuged at 3,220 g for 15 min at 4° C. to separate the hexanes from the aqueous layer. From the top hexane layer, 3.5 mL was transferred to a glass vial. This sample was then dried in a Savant speed vacuum concentrator (Thermofisher, Waltham, Massachusetts, USA) and dissolved in 300 μL methanol. One hundred-μL of dissolved sample were injected into an HPLC system connected to an Agilent Sil column (5 μm, 4.6×250 mm; Agilent Technologies, Santa Clara, CA) for separation with 10% ethyl acetate in hexanes at a flow rate 1.4 mL min^−1. A chromatogram of absorption at 340 nm was then obtained. A YC-001 standard was subjected to the same procedures as the ocular samples and used to establish a retention time at 13.2 min. By comparing ocular samples to its standard curve of YC-001, the amount of YC-001 was then quantified in pmol eye^−1 at different time points after its systemic administration. The identity of YC-001 in the peak fraction with a retention time of 13.2 min was confirmed by LC-MS using the same chromatography method as applied for HPLC.

[3] = target: T1, human clarin-1 N48K (Homo sapiens, UniProt P58418, N48K); assay: Image-based analysis of clarin-1 N48K-Venus in HEK 293 cells; format: cell-based
T1 sequence (P58418 1-232 N48K): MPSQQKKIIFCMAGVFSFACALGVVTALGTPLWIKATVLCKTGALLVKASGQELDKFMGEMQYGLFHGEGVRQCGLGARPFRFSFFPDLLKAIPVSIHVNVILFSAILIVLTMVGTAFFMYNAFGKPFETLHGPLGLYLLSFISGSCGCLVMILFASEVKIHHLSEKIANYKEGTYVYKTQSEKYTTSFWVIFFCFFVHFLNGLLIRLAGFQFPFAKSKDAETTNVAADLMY
Experimental: HEK 293 stable cells co-expressing human clarin-1 N48K-Venus fluorescent protein and DsRed-Express-DR fusion protein were obtained from Dr. Yoshikazu Imanishi at Case Western Reserve University (CWRU). Cells were cultured in DMEM medium with 10% FBS following guidelines from ATCC. To test effects of YC-001 treatments on clarin-1 N48K-Venus amounts in these cells, an image-based assay was performed. Briefly, cells were seeded at 20,000 cells per well in 40 μL per well DMEM medium with 10% FBS in a 384-well PerkinElmer View plate coated with poly-D-lysine and cultured at 37° C. with 5% CO2 for 24 h. Cells then were treated with 10 μL per well DMEM medium with 10% FBS containing 5× the final concentration of tested compounds. […] Each compound was tested with 10 doses in a 2-fold dilution series, featuring 3 biological replicates. The 384-well plate was put back for incubation at 37° C. with 5% CO2. After 24 h of exposure to test compounds, the plate was removed, and the medium was aspirated and replaced by 20 μL per well of 4% paraformaldehyde for fixation at RT for 20 min. […] Images were analyzed by the Columbus storage and analysis system (Perkin Elmer). Hoechst33342 fluorescence images were used to define nuclei and count cells. […] YFP and DsRed fluorescence intensities per cell were measured in each well.

Which “protection of the ONL from light-induced damage” value [1] does the source give for `O=C1OCC(c2ccc(Cl)s2)=C1c1cccs1` [YC-001] here?
Its value is “dose-dependent protection of the ONL”.

What about the “amount of YC-001 per eye” value ([2]; 0.5 h after i.p. injection at 200 mg kg−1 bw) of the same molecule?
Its value is “About 70 pmol per eye”.

What about the “amount of YC-001 per eye” value ([2]; 3 h after i.p. injection at 200 mg kg−1 bw) of the same molecule?
Its value is 280 pmol per eye.

What about the “amount of YC-001 per eye” value ([2]; 24 h after i.p. injection at 200 mg kg−1 bw) of the same molecule?
Its value is “undetectable”.

And the “amount or stability of the clarin-1 N48K mutant” value [3]?
Its value is “did not affect the amount or stability”.
